Measured values reported in patent US20250235543A1, “MODIFIED PROTEINS AND PROTEIN DEGRADERS” (Cullgen (Shanghai), Inc., priority 2021, published 2025).

Columns and labels:
DDB1 = target: T1, DDB1 (Homo sapiens, UniProt Q16531, D705G/DEL396-460/DEL463-701/I704S/T703N); assay: SPR binding assay to immobilized DDB1ΔBPB; conditions: binding affinities to DDB1
T1 construct: His6 (N, cleaved yes); TEV protease cleavage site (N, cleaved yes); made in house; host or cells: SF9 insect cells, Bac-to-Bac baculovirus, pFastBacHTB vector
In short: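 Untagged Sf9-expressed DDB1ΔBPB (BPB domain aa 396-705 replaced by GNGNSG linker) amine-coupled to CM5 chip at 10,000-12,000 RU; 25° C, HBS-EP pH 7.4 with 5% DMSO. Compounds injected multi-cycle at 100 μM-3.125 μM (6-point two-fold); double-referenced, solvent-corrected data fit to steady-state model for Kd.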

Hs578T = assay: Cell viability assay, Hs578T; format: cell-based; conditions: Homo sapiens, Hs-578T, 72 h, TNBC, 3 days, read-out: Cellular Anti-proliferation activity (IC50)
Method: (§1) Cells were treated with CDK4/6 inhibitors palbociclib, ribociclib, or abemaciclib, or heterobifunctional compounds CPD-002 or CPD-031 following a 9-point serial dilution for 3 days.
(§2) Cells were seeded at a density of 2,000-5,000 cells per well in 96-well assay plates and treated with test compounds following a 10-point serial dilution for 3-6 days. Cell viability was determined using the CellTiter-Lumi assay kit according to the manufacturer's instructions. The dose-response curves were determined and IC50 values were calculated using the GraphPad Prism software following a nonlinear regression (least squares fit) method. Data presented was mean±standard deviation (SD) unless otherwise indicated.

[1] = system: cyclin D1, cyclin D2, cyclin D3, CDK4 and CDK6; assay: Immunoblotting of cyclin D and CDK4/6 protein levels in Calu-1 cells; format: cell-based; conditions: for cyclin D degradation after pretreatment with MG-132, MLN4924 or TAK-243: 2 hours pre-treatment, then 500 nM CPD-002, 500 nM CPD-004 or 100 nM CPD-031 for 4 h or 2 h; for time course of cyclin D1, cyclin D2 and cyclin D3 protein level reduction: CPD-002 at 500 nM, CPD-031 at 100 nM; for cyclin D1, cyclin D2, cyclin D3, CDK4 and CDK6 protein levels: indicated concentrations, 16 hours
Method: Calu-1 (FIG. 2A) or BT-549 (FIG. 2B) cells were treated with CPD-002, CPD-004, or palbociclib at indicated concentrations for 16 hours.
Calu-1 cells were treated with CPD-031 at indicated concentrations for 16 hours.
Calu-1 cells were treated with CPD-002 or CPD-031 at 500 nM or 100 nM, respectively for indicated period of time.
Calu-1 cells were pre-treated with DMSO, 20 μM MG-132 (MG), 5 μM MLN4924 (MLN) or 1 μM TAK-243 (TAK) for 2 hours, and subsequently incubated with 500 nM CPD-002, 500 nM CPD-004, or 100 nM CPD-031 for another 4 h or 2 h prior to immunoblotting (FIG. 5A-5B).
Calu-1 cells were treated with a dose range of negative control compounds CPD-042 or CPD-049 for 16 hours (FIG. 6A-6B).
Calu-1 cells were treated with reference compounds CP-10 or BSJ-03-123 at indicated concentrations for 8 hours.
Cultured cells were washed with cold PBS once and lysed in cold RIPA buffer supplemented with protease inhibitors and phosphatase inhibitors (Beyotime Biotechnology). The solutions were then incubated at 4° C. for 30 min with gentle agitation to fully lysed cells. Cell lysates were centrifuged at 13,000 rpm for 10 min at 4° C. and pellets were discarded. Total protein concentrations in the lysates were determined following BCA assays (Beyotime Biotechnology). Cell lysates were mixed with Laemmli loading buffer and heated at 99° C. for 5 min. Proteins were resolved on SDS-PAGE and visualized using Western ECL Substrate kits on a ChemiDoc MP Imaging system (Bio-Rad). Protein bands were quantitated using the Image Lab software provided by Bio-Rad.

KURAMOCHI = assay: Cell viability assay, KURAMOCHI; format: cell-based; conditions: 72 h, OC, 3 days, read-out: Cellular Anti-proliferation activity (IC50)
Method: as §1, §2

[2] = system: Calu-1, NCI-H522, BT-549, Hs578T, MIA PaCa-2 or other cells; assay: Inhibition of cancer cell growth, 9-point serial dilution in 96-well plates; format: cell-based; conditions: 3 d treatment
BT-549 = assay: Cell viability assay, BT-549; format: cell-based; conditions: Homo sapiens, 72 h; BT-549, TNBC, 3 days; read-out: Cellular Anti-proliferation activity (IC50)
Method: as §1, §2

Calu-1 = assay: Cell viability assay, Calu-1; format: cell-based; conditions: Homo sapiens, 72 h; Calu-1, NSCLC, 3 days; read-out: Cellular Anti-proliferation activity (IC50)
In short: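 Cells were exposed to a serial dilution of test compound for 3-6 days, or 3 days with a 9-point series for CDK4/6 inhibitors and heterobifunctional compounds. Viability was read by luminescence (CellTiter-Lumi). IC50 came from nonlinear least-squares regression of dose-response curves, reported as mean±SD.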

OVCAR3 = assay: Cell viability assay, OVCAR3; format: cell-based; conditions: Homo sapiens, OVCAR-3, 72 h; OVCAR3, OC, 3 days; read-out: Cellular Anti-proliferation activity (IC50)
Method: as §1, §2

MIA PaCa-2 = assay: Cell viability assay, MIA PaCa-2; format: cell-based; conditions: Homo sapiens, 72 h; MIA PaCa-2, PC, 3 days; read-out: Cellular Anti-proliferation activity (IC50)
Method: as §1, §2

T1 sequence (Q16531 other isoform, or with tags, fused parts or gaps DEL396-460/DEL463-701/T703N/I704S/D705G): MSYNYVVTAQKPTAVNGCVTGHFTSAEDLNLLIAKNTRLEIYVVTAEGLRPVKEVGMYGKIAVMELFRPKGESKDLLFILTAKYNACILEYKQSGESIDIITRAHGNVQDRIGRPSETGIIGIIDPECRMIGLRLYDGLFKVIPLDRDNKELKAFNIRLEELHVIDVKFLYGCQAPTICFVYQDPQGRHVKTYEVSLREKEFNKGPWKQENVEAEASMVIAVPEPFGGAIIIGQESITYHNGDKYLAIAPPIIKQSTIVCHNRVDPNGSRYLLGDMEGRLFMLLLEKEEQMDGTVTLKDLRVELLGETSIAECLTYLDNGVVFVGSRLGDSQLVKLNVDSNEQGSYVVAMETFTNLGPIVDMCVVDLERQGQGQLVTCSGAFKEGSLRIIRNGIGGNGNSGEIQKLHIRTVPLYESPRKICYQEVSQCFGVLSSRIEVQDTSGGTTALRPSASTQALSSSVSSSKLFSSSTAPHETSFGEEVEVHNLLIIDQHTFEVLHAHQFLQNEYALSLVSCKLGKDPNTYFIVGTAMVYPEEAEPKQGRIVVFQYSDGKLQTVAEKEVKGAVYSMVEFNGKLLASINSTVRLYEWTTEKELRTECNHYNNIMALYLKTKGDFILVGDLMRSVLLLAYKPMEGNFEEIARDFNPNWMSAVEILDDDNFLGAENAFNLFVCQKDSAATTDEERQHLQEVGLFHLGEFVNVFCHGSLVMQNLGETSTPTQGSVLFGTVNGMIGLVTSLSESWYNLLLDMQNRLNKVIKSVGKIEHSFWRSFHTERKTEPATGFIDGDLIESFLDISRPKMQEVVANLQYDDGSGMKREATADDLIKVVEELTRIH

Kd (DDB1) [nM] | IC50 (BT-549) [nM] | IC50 (Calu-1) [nM] | IC50 (OVCAR3) [nM] | IC50 (MIA PaCa-2) [nM] | Compound | IC50 (Hs578T) [nM] | cyclin D degradation after pretreatment with MG-132, MLN4924 or TAK-243 [1] | time course of cyclin D1, cyclin D2 and cyclin D3 protein level reduction [1] | cyclin D1, cyclin D2, cyclin D3, CDK4 and CDK6 protein levels [1] | IC50 (KURAMOCHI) [nM] | potency at inhibition of multiple cancer cell lines versus CDK4/6 inhibitors [2]
20000 to 50000 | 690 | 68 | 107 | 175 | CC(=O)c1c(C)c2cnc(Nc3ccc(N4CCN(CC(=O)NCCOCCOCCOCCOCCOCCNc5ccc(C(=O)Nc6ncc(C)s6)c(C)c5)CC4)cn3)nc2n(C2CCCC2)c1=O [CPD-002, 4-((1-(4-(6-((6-Acetyl-8-cyclopentyl-5-methyl-7-oxo-7,8-dihydropyrido[2,3-d]pyrimidin-2-yl)amino)pyridin-3-yl)piperazin-1-yl)-2-oxo-6,9,12,15,18-pentaoxa-3-azaicosan-20-yl)amino)-2-methyl-N-(5-methylthiazol-2-yl)benzamide] | 215 | diminished the cyclin D degradation effect | significantly reduced as early as one hour following treatment | reduced cyclin D1, cyclin D2, cyclin D3, CDK4 and CDK6 protein levels in a concentration-dependent manner | 920 | significantly more potent than palbociclib, ribociclib, and abemaciclib
< 20000 | 110 | 9 | 39 | 57 | CC(=O)c1c(C)c2cnc(Nc3ccc(N4CCN(CC(=O)NCCOCCOCCOCCOCCOCCNc5ccc(C(=O)Nc6nc(C)c(C)s6)c(C)c5)CC4)cn3)nc2n(C2CCCC2)c1=O [CPD-031, 4-((1-(4-(6-((6-Acetyl-8-cyclopentyl-5-methyl-7-oxo-7,8-dihydropyrido[2,3-d]pyrimidin-2-yl)amino)pyridin-3-yl)piperazin-1-yl)-2-oxo-6,9,12,15,18-pentaoxa-3-azaicosan-20-yl)amino)-N-(4,5-dimethylthiazol-2-yl)-2-methylbenzamide] | 38 | diminished the cyclin D degradation effect | significantly reduced as early as one hour following treatment | downregulated the protein levels of cyclin D1, cyclin D2, cyclin D3, CDK4, CDK6, and downstream phosphorylated Rb in a concentration-dependent manner | 190 | significantly more potent than palbociclib, ribociclib, and abemaciclib
